In brackets after ≈: the same amount, converted by molar mass.
Columns and labels:
[1] = Liver S9 fraction stability, dog; type: in vitro ADME; settings: dog liver S9 1.0 mg/ml, 2 μM, 37° C.
Description: (§1) Liver S9 fraction stability determination of the test compounds in dog, cynomolgus monkey and human is performed using HPLC-MS. Test compound (2 μM, 0.1% DMSO, 1% Methanol final concentration) was assessed for stability in a 50 μl phosphate buffer containing 1.0 mg/ml S9 protein from each of the three species and 5 mM D-saccharic acid-1, 4-lactone. Samples were incubated at 37° C. for 60 minutes and the % compound remaining was assessed.

[2] = Liver S9 fraction stability, monkey; type: in vitro ADME, cynomolgus monkey; settings: monkey liver S9 1.0 mg/ml, 2 μM, 37° C.
Description: as §1

[3] = Liver S9 fraction stability, human; type: in vitro ADME; settings: human liver S9 1.0 mg/ml, 2 μM, 37° C.
Description: as §1

DOR = target: T1, DOR (Homo sapiens, UniProt P41143); test: Opioid receptor binding assay, DOR ([3H]-DADLE)
T1 construct: expressed in transfected cells
Description: (§2) Receptor binding assays were performed to assess the ability of compounds to inhibit binding to radiolabeled ligand.
(§3) The stable cell lines were established and prepared cell membrane obtained using these cell lines.
(§4) 1) Transfer 1 μl of specified concentration compound to assay plate according to the plate map for nonspecific binding. Transfer 1 μl of DMSO to assay plate according to plate map for total binding. 2) Follow the plate map. Dispense 99 μl of membrane stocks into the plate. 3) Add 100 μl of radio ligand. 4) Seal the plates. Incubate at RT for 1 hour. 5) Soak the Unifilter-96 GF/C filter plates with 50 μl of 0.3% PEI per well for at least 0.5 hour at room temperature. 6) When binding assays are completed, filter the reaction mixture through GF/C plates using Perkin Elmer Filtermate Harvester, and then wash each plate for 4 times with cold wash buffer. 7) Dry the filter plates for 1 hour at 50 degrees. 8) After drying, seal the bottom of the filter plate wells using Perkin Elmer Unifilter-96 backing seal tape. Add 50 μl of Perkin Elmer Microscint 20 cocktail. Seal top of filter plates with Perkin Elmer TopSeal-A sealing film. 9) Count ^3H trapped on filter using Perkin Elmer MicroBeta2 Reader second day. 10) Analyze the data with GraphPad Prism 5. Calculate the “Inhibition [% Control]” using the equation: % Inh=(1−Background subtracted Assay value/Background subtracted HC value)*100.

KOR = target: T2, KOR (Homo sapiens, UniProt P41145); test: Opioid receptor binding assay, KOR ([3H]Diprenorphine)
T2 construct: expressed in transfected cells
Description: as §2, §3, §4

MOR = target: T3, MOR (Homo sapiens, UniProt P35372); test: Opioid receptor binding assay, MOR ([3H]DAMGO)
T3 construct: expressed in transfected cells
Description: as §2, §3, §4

[4] = Solubility determination in oil (Table 10); settings: thermodynamic from solid; for solubility at 24 h: 25 °C, Heating Temp. 60 °C, Obs. Temp. 25 °C; for solubility thermodynamic / solubility: 40 °C, Heating Temp. 40 °C, Obs. Temp. 40 °C; for solubility thermodynamic: water, Equilibrium solubility: Water
Description: A known amount of test substance (˜40 mg) was weighed into the vial, 100 μL of oil was added and heated to 60° C. and then system was slurried to reach equilibrium. […] Extra oil was added into the vial once compound precipitated out and then the system was re-equilibrated at 1000 rpm at room temperature (25° C.). Final concentration was determined by HPLC method as described below in Table 6a and 6b.

[5] = Rat pharmacokinetic studies, intramuscular administration; type: in vivo, male Sprague Dawley Rats; settings: male, Sprague Dawley, rat, plasma, im; for AUC(0-inf): read-out: AUC0-inf (ng · h/mL) prodrug; for half-life: read-out: Half-life t1/2 (hour) prodrug (converted)
Description: The purpose of this study is to determine the pharmacokinetics of test compounds in plasma, following intramuscular administration to male Sprague Dawley Rats (n=3, unless otherwise specified).
The dose formulation of 400 mg base equivalents/ml in sesame oil+1% benzyl alcohol (unless otherwise specified) was administered by intramuscular injection. The dose volume was determined by the animals' body weight determined on the morning of dosing day.
Each collected blood sample was centrifuged for 4 minutes at 4° C. and 10000 rpm for plasma collection. Plasma was collected and transferred into a pre-labeled PP tube in dry ice at each time point and precipitated immediately using ACN at a ratio of 1:4 (plasma:ACN). Centrifuged again (10 minutes, 12000 rpm) and obtain the supernatant.
(§5) LC-MS/MS methods for the quantitative determination of test compound in biological matrix were developed. […] The sample analysis was performed concurrently with a set of calibration standards and two sets of QC samples using the LC-MS/MS method.
(§6) Plasma concentration versus time data was analyzed by non-compartmental approaches using the Phoenix WinNonlin 6.3 software program. Cmax, Tmax, T1/2, AUC(0-t), AUC(0-inf), MRT(0-t), MRT(0-inf) and graphs of plasma concentration versus time profile were prepared.

[6] = Dog pharmacokinetic studies, deep intramuscular administration; type: in vivo, Beagle dogs; settings: Beagle, dog, plasma, im; for AUC(0-inf): read-out: AUC0-inf (ng · h/mL) prodrug; for half-life: read-out: Half-life t1/2 (hour) prodrug (converted)
Description: The purpose of this study is to determine the pharmacokinetics of test compounds in plasma, following deep intramuscular administration to Beagle dogs (n=3, unless otherwise specified).
(§7) The dose formulation (concentration—400 mg base equivalents/ml in sesame oil+1% benzyl alcohol, unless otherwise specified) was administered via deep intramuscularly (unless otherwise specified). The injection vehicle was also dosed via deep intramuscular route (unless otherwise specified) on contralateral site of each animal at study initiation. The animals were sedated with Propofol at 6 mg/kg via IV administration. Following sedation hair was carefully removed from around the injection site and the area gently cleaned. Care will be taken to avoid irritating skin during shaving and cleaning the injection site. Then dogs will be dosed with deep IM administration. At least 2.5 cm depth from the surface into the central aspect of the quadriceps or biceps femoris muscle, by angling the needle toward the femur. If the needle hits the femur, simply draws back slightly and then inject. The dose volume will be determined by the animals' body weight collected on the morning of dosing day. For repeated administration, the injection sites may be rotated to minimize tissue injury.
Blood samples were collected from a peripheral vessel from restrained, non-sedated animals per sampling time point.
Approximately 0.8 mL blood will be collected at each time point.
Each collected blood sample was centrifuged for 4 minutes at 4° C. and 10000 rpm for plasma collection. Plasma was collected and transferred into a pre-labeled PP tube in dry ice at each time point and precipitated immediately using ACN at a ratio of 1:4 (plasma:ACN).
as §5, §6

[7] = Dog body weights and clinical observation (Tables 66-86); type: in vivo, Beagle dogs; settings: 48 mg/kg Shallow IM, dog D1002, 1128 hr
Description: Weight monitoring was done every week.
as §7

[8] = oil or lipid, Approximate Solubility in Excipient: Cottonseed oil
[9] = oil or lipid, Approximate Solubility in Excipient: Sesame oil
[10] = 80 mg/kg, Cottonseed + 1% Benzyl Alcohol
[11] = 123 mg/kg, Cottonseed oil + 1% Benzyl Alcohol
[12] = 165 mg/kg, Cottonseed oil + 1% Benzyl Alcohol
[13] = 48 mg/kg, IM 48 mg/kg (deep), Cottonseed + 1% Benzyl Alcohol
[14] = 48 mg/kg, IM 48 mg/kg (shallow), Cottonseed + 1% Benzyl Alcohol
[15] = 80 mg/kg, Sesame oil + 1% Benzyl Alcohol
[16] = 123 mg/kg, Sesame oil + 1% Benzyl Alcohol
[17] = 165 mg/kg, Sesame oil + 1% Benzyl Alcohol
[18] = 30 mg/kg, IM 30 mg/kg, Sesame oil + 1% Benzyl Alcohol
[19] = 48 mg/kg, IM 48 mg/kg (deep), Sesame oil + 1% Benzyl Alcohol
[20] = 48 mg/kg, IM 48 mg/kg (shallow), Sesame oil + 1% Benzyl Alcohol
[21] = 96 mg/kg, IM 96 mg/kg, Sesame oil + 1% Benzyl Alcohol

T2 sequence (P41145 whole entry): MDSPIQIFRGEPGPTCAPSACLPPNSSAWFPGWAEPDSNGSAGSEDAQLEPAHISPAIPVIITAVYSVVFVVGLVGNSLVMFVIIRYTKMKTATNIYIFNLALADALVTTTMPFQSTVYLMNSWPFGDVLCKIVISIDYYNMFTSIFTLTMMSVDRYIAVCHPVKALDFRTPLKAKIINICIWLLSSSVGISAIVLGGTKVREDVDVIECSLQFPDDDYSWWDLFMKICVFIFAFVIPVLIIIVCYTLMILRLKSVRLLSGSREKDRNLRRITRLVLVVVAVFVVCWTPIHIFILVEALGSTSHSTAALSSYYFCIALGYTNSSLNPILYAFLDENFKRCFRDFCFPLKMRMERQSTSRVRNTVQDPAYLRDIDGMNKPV
T1 sequence (P41143 whole entry): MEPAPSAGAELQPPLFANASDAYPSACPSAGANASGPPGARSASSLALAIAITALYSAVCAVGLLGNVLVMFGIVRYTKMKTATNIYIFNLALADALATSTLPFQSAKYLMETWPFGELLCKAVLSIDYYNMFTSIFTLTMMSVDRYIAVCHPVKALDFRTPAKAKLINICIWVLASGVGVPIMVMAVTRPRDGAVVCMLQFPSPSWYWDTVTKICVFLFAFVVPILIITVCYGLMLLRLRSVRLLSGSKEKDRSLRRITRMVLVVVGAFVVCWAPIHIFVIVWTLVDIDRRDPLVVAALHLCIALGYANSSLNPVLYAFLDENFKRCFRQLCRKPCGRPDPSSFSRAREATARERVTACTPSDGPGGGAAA
T3 sequence (P35372 whole entry): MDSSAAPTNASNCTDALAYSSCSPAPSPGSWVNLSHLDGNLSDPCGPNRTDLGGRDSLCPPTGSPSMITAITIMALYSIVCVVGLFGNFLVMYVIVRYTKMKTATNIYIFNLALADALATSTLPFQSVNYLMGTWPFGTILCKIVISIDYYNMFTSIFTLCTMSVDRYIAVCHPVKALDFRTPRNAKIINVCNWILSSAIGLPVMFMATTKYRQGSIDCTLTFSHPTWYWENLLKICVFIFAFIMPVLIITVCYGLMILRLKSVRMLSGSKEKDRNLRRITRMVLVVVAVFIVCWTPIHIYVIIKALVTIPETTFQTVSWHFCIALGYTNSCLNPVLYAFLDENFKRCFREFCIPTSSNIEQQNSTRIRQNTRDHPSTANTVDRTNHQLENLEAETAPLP

SMILES: C=C1CC[C@@]2(O)C3Cc4ccc(OCOC(=O)OCCCCCCCCCCCC)c5c4[C@@]2(CCN3CC2CC2)[C@H]1O5 [Compound 24, (((4aS,7aS,12bS)-3-(cyclopropylmethyl)-4a-hydroxy-7-methylene-2,3,4,4a,5,6,7,7a-octahydro-1H-4,12-methanobenzofuro[3,2-e]isoquinolin-9-yl)oxy)methyl dodecyl carbonate]
- % remaining at 60 minutes, Dog [1]: 3.6%
- % remaining at 60 minutes, Monkey [2]: 3%
- % remaining at 60 minutes, Human [3]: 3.5%
- IC50 (DOR): 2120 nM
- IC50 (KOR): 37.5 nM
- IC50 (MOR): 22.4 nM
- solubility at 24 h [4, 8]: > 403 mg/mL
- solubility at 24 h [4, 9]: 338 to 368 mg/mL (≈ 581 to 633 mM)
- solubility thermodynamic [4]: < 0.001 mg/mL
- AUC(0-inf) [5, 10]: 147 ng·h/mL
- half-life [5, 10]: 398 h
- AUC(0-inf) [5, 11]: 547 ng·h/mL
- half-life [5, 11]: 717 h
- AUC(0-inf) [5, 12]: 453 ng·h/mL
- half-life [5, 12]: 851 h
- AUC(0-inf) [6, 13]: 613 ng·h/mL
- half-life [6, 13]: 59.6 h
- AUC(0-inf) [6, 14]: 526 ng·h/mL
- half-life [6, 14]: 102 h
- BT [7]: BT: 38.8 °C

SMILES: C=C1CC[C@@]2(O)C3Cc4ccc(OC(=O)OCCCCCCCCCCCC)c5c4[C@@]2(CCN3CC2CC2)[C@H]1O5 [Compound 6, (4aS,7aS,12bS)-3-(cyclopropylmethyl)-4a-hydroxy-7-methylene-2,3,4,4a,5,6,7,7a-octahydro-1H-4,12-methanobenzofuro[3,2-e]isoquinolin-9-yl dodecyl carbonate]
- % remaining at 60 minutes, Dog [1]: 17.1%
- % remaining at 60 minutes, Monkey [2]: 0%
- % remaining at 60 minutes, Human [3]: 5.3%
- IC50 (DOR): 500 nM
- IC50 (KOR): 51.1 nM
- IC50 (MOR): 14.9 nM
- solubility at 24 h [4, 8]: > 397 mg/mL
- solubility at 24 h [4, 9]: > 386 mg/mL
- solubility [4, 8]: > 421 mg/mL
- solubility [4, 9]: > 403 mg/mL
- solubility ([4]; organic solvent or mixture, Approximate Solubility in Excipient: Ethanol): 120 to 170 mg/mL (≈ 217 to 308 mM)
- solubility thermodynamic [4]: 0.002 mg/mL (≈ 0.00362 mM)
- AUC(0-inf) [5, 15]: 78.9 ng·h/mL
- half-life [5, 15]: 340 h
- AUC(0-inf) [5, 16]: 620 ng·h/mL
- half-life [5, 16]: 213 h
- AUC(0-inf) [5, 17]: 637 ng·h/mL
- half-life [5, 17]: 204 h
- AUC(0-inf) [6, 18]: 398 ng·h/mL
- half-life [6, 18]: 95 h
- AUC(0-inf) [6, 19]: 2190 ng·h/mL
- half-life [6, 19]: 54 h
- AUC(0-inf) [6, 20]: 1020 ng·h/mL
- half-life [6, 20]: 135 h
- AUC(0-inf) [6, 21]: 1290 ng·h/mL
- half-life [6, 21]: 88 h
